Molecules are shown by their SMILES.

Results on 31 compounds are retold here after patent publication US10865191B2, “Heterocyclic compounds useful as modulators of TNF alpha” (BRISTOL-MYERS SQUIBB COMPANY, priority 2015, dated 2020).

Chain of TNFα (P01375 77-233 limits assumed): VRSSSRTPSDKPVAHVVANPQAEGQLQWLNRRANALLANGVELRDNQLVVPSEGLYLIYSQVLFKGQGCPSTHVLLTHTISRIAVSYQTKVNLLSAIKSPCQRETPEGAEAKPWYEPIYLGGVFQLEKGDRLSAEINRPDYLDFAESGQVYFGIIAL

The target in the assay is TNFα (Homo sapiens, UniProt P01375). Kind of assay: TNF induced HEK-Blue assay (NF-kB-driven secreted alkaline phosphatase reporter). The class given is cell-based. As to conditions: TNFα 0.5 ng/mL, HEK-Blue-CD40L cells, 18 h; read-out: TNF induced HEK-Blue assay IC50 value. The procedure, abridged:
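HEK-Blue-CD40L cells (NF-kB-driven SEAP reporter), 20,000/well, added after 30 min pre-incubation of compound (0.004–25 μM final) with TNFα 0.5 ng/mL final at 37 °C; 18 h incubation. SEAP read with QUANTI-Blue at 620 nm; IC50 from 4-parameter logistic fit, normalized to unstimulated and stimulated DMSO controls.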
With `C[C@@H](Nc1c(Cl)cnc2ccc(-c3cnc(N4CCNC(=O)C4)nc3)cc12)c1ccccc1F` [Example 226, (R)-4-(5-(3-chloro-4-((1-(2-fluorophenyl)ethyl)amino)quinolin-6-yl)pyrimidin-2-yl)piperazin-2-one], the concentration for half-maximal inhibition (IC50) was below 1000 nM.
Turning to `Cc1ccc(C)c(Nc2c(Cl)c(N)nc3ccc(-c4cnc(N5CCN(CC(=O)O)CC5)nc4)cc23)c1` [Example 45, 2-(4-(5-(2-amino-3-chloro-4-((2,5-dimethylphenyl)amino)quinolin-6-yl)pyrimidin-2-yl)piperazin-1-yl)acetic acid], the IC50 is below 1000 nM.
With `CCC(Nc1c(Cl)cnc2ccc(-c3cnc(C(C)(C)O)nc3)cc12)C1CCC1` (racemic) [Example 50, 2-(5-(3-chloro-4-((1-cyclobutylpropyl)amino)quinolin-6-yl)pyrimidin-2-yl)propan-2-ol], the concentration for half-maximal inhibition (IC50) was below 1000 nM.
In the case of `Cc1nc2cc(F)c(-c3cnc(C(C)(C)O)nc3)nc2c(N[C@@H](c2cc(C(N)=O)ccc2F)C(F)F)c1Cl` [Example 497, (S)-3-(1-((3-chloro-7-fluoro-6-(2-(2-hydroxypropan-2-yl)pyrimidin-5-yl)-2-methyl-1,5-naphthyridin-4-yl)amino)-2,2-difluoroethyl)-4-fluorobenzamide], the half-maximal inhibitory concentration (IC50) is below 1000 nM.
Consider `C[C@@H](Nc1c(Cl)cnc2ccc(-c3cnc(NCC(N)=O)nc3)cc12)c1ccccc1F` [Example 585, (R)-2-((5-(3-chloro-4-((1-(2-fluorophenyl)ethyl)amino)quinolin-6-yl)pyrimidin-2-yl)amino)acetamide], for which the IC50 was in the range of 10000 to 25000 nM.
`C[C@@H](Nc1c(Cl)cnc2ccc(-c3cnc(C(C)(C)O)nc3)cc12)c1cc(CO)ccc1F` [Example 430, (R)-2-(5-(3-chloro-4-((1-(2-fluoro-5-(hydroxymethyl)phenyl)ethyl)amino)quinolin-6-yl)pyrimidin-2-yl)propan-2-ol]: the IC50 was below 1000 nM.
As for `CC(Nc1c(Cl)cnc2cc(F)c(-c3ccc(C(O)CN4CCOCC4)cc3)cc12)c1ccccc1F` (stereo not shown) [Example 286, 1-(4-(3-chloro-7-fluoro-4-((1-(2-fluorophenyl)ethyl)amino)quinolin-6-yl)phenyl)-2-morpholinoethan-1-ol], the figure is below 1000 nM; as for `Cc1ccc2c(CCC(C)Nc3c(Cl)cnc4ccc(-c5cnc(C(C)(C)O)nc5)cc34)c[nH]c2c1` (racemic) [Example 141, 2-(5-(3-chloro-4-((4-(6-methyl-1H-indol-3-yl)butan-2-yl)amino)quinolin-6-yl)pyrimidin-2-yl)propan-2-ol], 10000 to 25000 nM; as for `Cc1nc2cc(F)c(-c3cnc(C(C)(C)O)nc3)nc2c(N[C@H](C)c2cc(CO)ccc2F)c1Cl` [Example 577, (R)-2-(5-(7-chloro-3-fluoro-8-((1-(2-fluoro-5-(hydroxymethyl)phenyl)ethyl)amino)-6-methyl-1,5-naphthyridin-2-yl)pyrimidin-2-yl)propan-2-ol], below 1000 nM.
Regarding `Cc1nc2cc(F)c(-c3ccc(=O)[nH]c3)cc2c(N[C@H](C)c2cc(Br)ccc2F)c1Cl` [Example 449, (R)-5-(4-((1-(5-bromo-2-fluorophenyl)ethyl)amino)-3-chloro-7-fluoro-2-methylquinolin-6-yl)pyridin-2(1H)-one], the 50% inhibitory concentration (IC50) is below 1000 nM.
Turning to `CC(Nc1c(Cl)cnc2cc(F)c(-c3cc(F)c(C(C)(C)O)c(F)c3)cc12)c1ccccc1F` (stereo not shown) [Example 268, 2-(4-(3-chloro-7-fluoro-4-((1-(2-fluorophenyl)ethyl)amino)quinolin-6-yl)-2,6-difluorophenyl) propan-2-ol], the IC50 was below 1000 nM.
On to `CC(Nc1c(Cl)cnc2ccc(-c3ccc(C(C)(C)O)cc3)cc12)c1cocn1` (racemic) [Example 206, 2-(4-(3-chloro-4-((1-(oxazol-4-yl)ethyl)amino)quinolin-6-yl)phenyl)propan-2-ol], for which the half-maximal inhibitory concentration (IC50) was 10000 to 25000 nM.
The figure for `C[C@@H](Nc1c(Cl)cnc2ccccc12)c1cc(-c2ccc(C#N)nc2)ccc1F` [Example 514, (R)-5-(3-(1-((3-chloroquinolin-4-yl)amino)ethyl)-4-fluorophenyl)picolinonitrile] is below 1000 nM.
As for `CC(Nc1c(Cl)cnc2cc(F)c(-c3cnc(N4CCN(C(=O)[C@@H](N)CC(=O)O)CC4)nc3)cc12)c1ccccc1F` (single isomer, unassigned) [Example 605, (3 S)-3-amino-4-(4-(5-(3-chloro-7-fluoro-4-((1-(2-fluorophenyl)ethyl)amino)quinolin-6-yl)pyrimidin-2-yl)piperazin-1-yl)-4-oxobutanoic acid], the figure is below 1000 nM; as for `C=Cc1ccc(F)c([C@@H](C)Nc2c(Cl)c(C)nc3cc(F)c(-c4cnc(C(C)(C)O)nc4)nc23)c1` [Example 572, (R)-2-(5-(7-chloro-3-fluoro-8-((1-(2-fluoro-5-vinylphenyl)ethyl)amino)-6-methyl-1,5-naphthyridin-2-yl)pyrimidin-2-yl)propan-2-ol], 1000 to 10000 nM.
Take `CC(Nc1c(Cl)cnc2ccc(-c3ccc(C(C)(C)O)cc3)cc12)c1ccsc1` (racemic) [Example 196, 2-(4-(3-chloro-4-((1-(thiophen-3-yl)ethyl)amino)quinolin-6-yl)phenyl)propan-2-ol]: the IC50 is below 1000 nM.
As for `CC(Nc1c(Cl)cnc2cc(F)c(-c3cnc(N4CCC(C(C)(C)O)CC4)nc3)cc12)c1ccccc1F` (single isomer, unassigned) [Example 245, 2-(1-(5-(3-chloro-7-fluoro-4-((1-(2-fluorophenyl)ethyl)amino)quinolin-6-yl)pyrimidin-2-yl)piperidin-4-yl)propan-2-ol], the figure is below 1000 nM; as for `CC(Nc1c(Cl)cnc2ccc(-c3ccc(C(C)(C)O)cc3)cc12)c1ccn(C)n1` (racemic) [Example 200, 2-(4-(3-chloro-4-((1-(1-methyl-1H-pyrazol-3-yl)ethyl)amino)quinolin-6-yl)phenyl)propan-2-ol], 1000 to 10000 nM.
As for `C[C@@H](Nc1c(Cl)cnc2ccccc12)c1cc(-c2ccnnc2)ccc1F` [Example 515, (R)-3-chloro-N-(1-(2-fluoro-5-(pyridazin-4-yl)phenyl)ethyl)quinolin-4-amine], the figure is 1000 to 10000 nM; as for `CC(Nc1c(Cl)cnc2c(Cl)cc(-c3ccc(C(C)(C)O)cc3)cc12)c1ccccc1F` (racemic) [Example 21, 2-(4-(3,8-dichloro-4-((1-(2-fluorophenyl)ethyl)amino)quinolin-6-yl)phenyl)propan-2-ol], 1000 to 10000 nM.
For `Cc1ccc(C)c(Nc2c(Cl)c(CO)nc3ccc(-c4ccc(C#N)nc4)cc23)c1` [Example 40, 5-(3-chloro-4-((2,5-dimethylphenyl)amino)-2-(hydroxymethyl)quinolin-6-yl)picolinonitrile], the IC50 was 1000 to 10000 nM.
On to `COc1ccc(F)c([C@@H](C)Nc2c(Cl)c(C)nc3ccc(-c4cnc(C(C)(C)O)nc4)cc23)c1` [Example 326, (R)-2-(5-(3-chloro-4-((1-(2-fluoro-5-methoxyphenyl)ethyl)amino)-2-methylquinolin-6-yl)pyrimidin-2-yl)propan-2-ol], for which the concentration for half-maximal inhibition (IC50) was below 1000 nM.
Take `CC(Nc1c(Cl)cnc2cc(F)c(-c3ccc(C(O)C4CC4)cc3)cc12)c1ccccc1F` (stereo not shown) [Example 261, (4-(3-chloro-7-fluoro-4-((1-(2-fluorophenyl)ethyl)amino)quinolin-6-yl)phenyl)(cyclopropyl) methanol]: the IC50 was below 1000 nM.
For the compound `CC(C)(O)c1ncc(-c2nc3c(N[C@H](c4cc(C(N)=O)ccc4F)C(F)F)c(Cl)cnc3cc2F)cn1` [Example 487, (R)-3-(1-((3-chloro-7-fluoro-6-(2-(2-hydroxypropan-2-yl)pyrimidin-5-yl)-1,5-naphthyridin-4-yl)amino)-2,2-difluoroethyl)-4-fluorobenzamide], the IC50 was below 1000 nM.
Take `CCC(Nc1c(Cl)cnc2ccc(-c3cnc(C(C)(C)O)nc3)cc12)c1ccccn1` (racemic) [Example 52, 2-(5-(3-chloro-4-((1-(pyridin-2-yl)propyl)amino)quinolin-6-yl)pyrimidin-2-yl)propan-2-ol]: the 50% inhibitory concentration (IC50) was below 1000 nM.
As for `CC(Nc1c(Cl)cnc2ccc(-c3ccc(C(C)(C)O)cc3)cc12)c1nccs1` (racemic) [Example 194, 2-(4-(3-chloro-4-((1-(thiazol-2-yl)ethyl)amino)quinolin-6-yl)phenyl)propan-2-ol], the figure is below 1000 nM; as for `C[C@@H](Nc1c(Cl)cnc2ccc(-c3cnc(C(C)(C)O)nc3)cc12)c1cc(S(C)(=O)=O)ccc1F` [Example 425, (R)-2-(5-(3-chloro-4-((1-(2-fluoro-5-(methylsulfonyl)phenyl)ethyl)amino)quinolin-6-yl)pyrimidin-2-yl)propan-2-ol], below 1000 nM; as for `Cc1nc2ccc(-c3cnc(C(C)(C)O)nc3)cc2c(N[C@H](C)c2cc(C(N)=O)ccc2F)c1C` [Example 315, (R)-4-fluoro-3-(1-((6-(2-(2-hydroxypropan-2-yl)pyrimidin-5-yl)-2,3-dimethylquinolin-4-yl)amino)ethyl)benzamide], 10000 to 25000 nM.
For `Cc1nc2cc(F)c(-c3cnc(C(C)(C)O)nc3)cc2c(N[C@H](C)c2cccc(C(N)=O)c2)c1Cl` [Example 394, (R)-3-(1-((3-chloro-7-fluoro-6-(2-(2-hydroxypropan-2-yl)pyrimidin-5-yl)-2-methylquinolin-4-yl)amino)ethyl)benzamide], the IC50 was below 1000 nM.
As for `Cc1ccc(C)c(Nc2c(F)c(C)nc3ccc(-c4cnc(N5CCN(CC(=O)O)CC5)nc4)cc23)c1` [Example 187, 2-(4-(5-(4-((2,5-dimethylphenyl)amino)-3-fluoro-2-methylquinolin-6-yl)pyrimidin-2-yl)piperazin-1-yl)acetic acid], the figure is below 1000 nM; as for `Cc1ccc(C)c(Nc2c(Cl)c(N)nc3ccc(-c4cnc(NCCO)nc4)cc23)c1` [Example 70, 2-((5-(2-amino-3-chloro-4-((2,5-dimethylphenyl)amino)quinolin-6-yl)pyrimidin-2-yl)amino)ethan-1-ol], below 1000 nM.

A word on the IC50: it is the concentration needed to halve the response being measured.
